PubChem BioAssay (NCI)
Several values for one entry are separate records, joined by “and”; a condition that tells them apart may be missing. Equal values may be shown once.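 Assay format: 96-well plates, 48-hour exposure. Here, GI50 denotes the concentration required for 50% inhibition of growth. Definition used: TGI = concentration required for complete inhibition of growth.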

What was measured:
Experiment in all cases: DTP human tumour cell line panel, 48 h
T-47D breast = test system: T-47D breast
NCI-H460 lung = test system: NCI-H460 lung
SF-268 CNS = test system: SF-268 CNS
M14 melanoma = test system: M14 melanoma
DU-145 prostate = test system: DU-145 prostate
EKVX NSCLC = test system: EKVX NSCLC
UACC-62 melanoma = test system: UACC-62 melanoma
SF-539 CNS = test system: SF-539 CNS
PC-3 prostate = test system: PC-3 prostate
MOLT-4 leukemia = test system: MOLT-4 leukemia

| Structure (SMILES) | GI50 (T-47D breast) [µM] | TGI (T-47D breast) | GI50 (NCI-H460 lung) [µM] | TGI (NCI-H460 lung) | GI50 (SF-268 CNS) [µM] | TGI (SF-268 CNS) | GI50 (M14 melanoma) [µM] | TGI (M14 melanoma) | GI50 (DU-145 prostate) [µM] | TGI (DU-145 prostate) | GI50 (EKVX NSCLC) [µM] | TGI (EKVX NSCLC) | GI50 (UACC-62 melanoma) [µM] | TGI (UACC-62 melanoma) [µM] | GI50 (SF-539 CNS) [µM] | TGI (SF-539 CNS) | GI50 (PC-3 prostate) [µM] | TGI (PC-3 prostate) | GI50 (MOLT-4 leukemia) [µM] | TGI (MOLT-4 leukemia) [µM] |
| --- | --- | --- | --- | --- | --- | --- | --- | --- | --- | --- | --- | --- | --- | --- | --- | --- | --- | --- | --- | --- |
| Nc1ccccc1-c1ccc([N+](=O)[O-])cc1 | 3.04 | > 100 µM | 4.44 | > 100 µM | 12.9 | > 100 µM | 97.7 | > 100 µM | 73.1 | > 100 µM | 8.58 | > 100 µM | 0.756 | 19.4 | 3.92 | 63 µM | 15 | > 100 µM | 4.28 | > 100 |
| Cc1ccc2c(c1)c1nc3cc(C)c(C)cc3nc1n2CCN(C)C | 3.34 | 17.7 µM | 2.69 | 9.25 µM | 2.51 | 7.65 µM | 1.78 | 3.92 µM | 2.9 | 10.6 µM | 2.95 | 11.4 µM | 1.59 | 3.57 | 2.15 | 6.13 µM | 2.32 | 6.82 µM | 1.73 | 16.3 |
| O=S(=O)(Cc1ccc(Cl)cc1Cl)c1ccc(Cl)cc1 | 6.02 | > 100 µM | 0.401 | 30 µM | 0.827 | > 100 µM | 0.5 | 48.2 µM | 1.74 | 16.1 µM | 2.11 | > 100 µM | 0.502 | > 100 | 0.47 | 3.72 µM | 1.28 | > 100 µM | 1.14 | > 100 |
| N=C(N)c1ccc(OCCOCCOc2ccc(C(=N)N)cc2)cc1 | 82.5 | > 100 µM | 44.2 | > 100 µM | 52 | > 100 µM | > 100 | > 100 µM | 96.1 | > 100 µM | > 100 | > 100 µM | > 100 | > 100 | 35.3 | > 100 µM | > 100 | > 100 µM | > 100 | > 100 |
| CCC1C(=O)OCc2c1cc1n(c2=O)Cc2cc3ccccc3nc2-1 (configuration not stated) |  | > 90.2 µM |  | 64.4 µM |  | > 100 µM |  | 13.7 µM |  | > 30.9 µM |  | > 100 µM |  | > 37.6 |  | 5.67 µM |  | > 100 µM |  | > 22 |
| O=C(Nc1ccccc1)c1nn(-c2cc(S(=O)(=O)O)c([N+](=O)[O-])cc2Cl)[n+](-c2cc(S(=O)(=O)[O-])c([N+](=O)[O-])cc2Cl)n1 |  | > 100 µM |  | > 100 µM |  | > 100 µM |  | > 100 µM |  | > 100 µM |  | > 100 µM |  | > 100 |  | > 100 µM |  | > 100 µM |  | > 100 |
| O=C1CC(c2cccc(O)c2)C2(C(=O)NC(=S)NC2=O)C(c2cccc(O)c2)C1 (configuration not stated) | > 100 | > 100 µM | > 100 | > 100 µM | > 100 | > 100 µM | > 100 | > 100 µM | > 100 | > 100 µM | > 100 | > 100 µM | > 100 | > 100 | > 100 | > 100 µM | > 100 | > 100 µM | > 100 | > 100 |
| CN(Cc1ccc(Cl)cc1)c1ccc(CO)c(Cl)c1 | 0.764 | 5.4 µM | 1.35 | 11.1 µM | 14.2 | 29.5 µM | 8.33 | 22.3 µM | 10.8 | 25.5 µM | 13.5 | 35.3 µM | 0.33 | 2.2 | 14 | 28.8 µM | 12.8 | 31 µM | 18 | 66.2 |
| CCCc1cc(O)c2c3c(c(=O)oc2c1)CN(C)CC3 | 37.8 | > 100 µM | > 100 | > 100 µM | > 100 | > 100 µM | 32.5 | > 100 µM | > 100 | > 100 µM | > 100 | > 100 µM | 47.2 | > 100 | 43.2 | > 100 µM | > 100 | > 100 µM | 44.3 | > 100 |
| CCC[CH2][Sn]([CH2]CCC)([O]C(=O)c1cc(F)ccc1F)[O][Sn]([CH2]CCC)([CH2]CCC)[O]C(=O)c1cc(F)ccc1F | 0.0222 | 0.207 µM | 1.03 | 2.48 µM | 0.216 | 0.798 µM | 0.367 | 1.25 µM | 0.646 | 1.92 µM | 0.69 | 2.11 µM | 0.206 | 0.665 | 0.386 | 1.22 µM | 0.759 | 2.01 µM | 0.111 |  |
| O=[N+]([O-])c1ccccc1N=Nc1c(O)[nH]c2ccc(Br)cc12 |  | > 78.7 µM |  | 25 µM |  | 51.9 µM |  | 44.7 µM |  | 31.5 µM |  | > 59 µM |  | 66.8 |  | > 100 µM |  | 33.3 µM |  | > 78.5 |
| CC(=O)CCc1ccc(OC2OC(COC(=O)c3cc(O)c(O)c(O)c3)C(O)C(O)C2OC(=O)/C=C/c2ccccc2)cc1 (configuration not stated) | 26.1 | > 100 µM | 21 | 43.5 µM | 19.3 | 49.4 µM | 18.6 | 37.4 µM | 23.5 | 42.8 µM | 40.3 | 72 µM | 18.4 | 32.6 | 26.4 | 44.8 µM | 33.4 | > 100 µM | 17.2 | 48.7 |
| S=C(N/N=C(/c1ccccc1)c1ccccn1)N1CCCCC1 | < 0.001 | 1.01 µM and 2.9 µM | 0.00149 | 2.31 µM and 1.52 µM | 0.323 | 2.5 µM and 5.35 µM |  | 1.66 µM and 0.543 µM | 1.11 | 2.32 µM and 2.87 µM | 1.21 | 2.45 µM and 0.558 µM | 0.965 | 3.16 | 0.265 | 1.85 µM and 2.09 µM | < 0.001 | 1.6 µM and 4.08 µM | < 0.001 |  |
| Cc1cc(Cl)cc2c(N=Nc3ccccc3[N+](=O)[O-])c(O)[nH]c12 |  | > 100 µM |  | > 100 µM |  | > 100 µM |  | > 100 µM |  | > 100 µM |  | > 100 µM |  | > 100 |  | > 100 µM |  | > 100 µM |  | > 100 |
| COC(=O)C1=C(C)NC(C)=C(C(=O)OC)C1/C=C(\Cl)c1ccc(Cl)c(Cl)c1 | 20.2 | 50.1 µM | 6.48 | 23.4 µM | 13.1 | 28.4 µM | 16.6 | 30.2 µM | 16.5 | 32 µM | 10.7 | 24.9 µM | 6.42 | 20.3 | 17.1 | 33 µM | 10.8 | 23.1 µM | 3.69 | 27.6 |
| CCOc1ccc(-c2cnnn2-c2nonc2-n2cccc2)cc1 | 0.466 | > 100 µM | 0.345 | > 33.4 µM | 0.736 | > 100 µM | 0.122 | 0.365 µM | 0.286 | 0.905 µM | 0.569 | > 100 µM | 0.379 | > 60.3 | 0.319 | 3.77 µM | 0.365 | > 100 µM | 0.51 | 31.7 |
| O=C(Nc1ccc(F)cc1)Nc1ccccc1CNc1nc(Nc2ccc(OCCN3CCCC3)cc2)ncc1Cl | 1.48 | 4.28 µM | 1.15 | 2.7 µM | 1.26 | 4.84 µM | 0.946 | 2 µM | 2.48 | 8.06 µM | 2.22 | 9.82 µM | 0.968 | 2.04 | 0.831 | 1.57 µM | 1.67 | 6.19 µM | 1.53 | 4.74 |
| Cn1ccnc1C(=O)/C=C/c1ccc(C(=O)Nc2ccc(S(F)(F)(F)(F)F)cc2)cc1 | 0.923 | > 14.3 µM | 0.534 | 2.57 µM | 3.09 | > 14.3 µM | 9.17 | > 14.3 µM | 2.41 | > 14.3 µM | 0.953 | > 14.3 µM | 2.28 | > 14.3 | 2.4 | 6.45 µM | 1.9 | > 14.3 µM | 1.72 | 10.1 |
| CC(C)Nc1ccc(Nc2ccccc2)cc1 | 15.5 | 38.8 µM | 18.9 | > 100 µM | 17 | 50.4 µM | 14.9 | 33 µM | 26.2 | > 100 µM | 12.8 | 44.7 µM | 11.6 | 51.6 | 5.34 | 38.6 µM | 9.2 | 31.3 µM | 21.2 | > 100 |
| COc1cc(-n2cc(-c3ccc(F)cc3)nc2SCc2ccccc2)cc(OC)c1OC | 9.57 | > 100 µM | 77.2 | > 100 µM | > 100 | > 100 µM | > 100 | > 100 µM | > 100 | > 100 µM | > 100 | > 100 µM | > 100 | > 100 | > 100 | > 100 µM | 9.48 | > 100 µM | 89.2 | > 100 |
| COc1cc2cc(C(=O)CCC(=O)O)sc2cc1OC | > 100 | > 100 µM | > 100 | > 100 µM | > 100 | > 100 µM | > 100 | > 100 µM | > 100 | > 100 µM | > 100 | > 100 µM | > 100 | > 100 | 16.5 | > 100 µM | > 100 | > 100 µM | > 100 | > 100 |
| O=c1cc(-c2ccccc2)oc2cc(O)c(O)c(O)c12 | 23.7 | > 100 µM | 7.99 | > 100 µM | 4.55 | 29.6 µM | 22.9 | 92.2 µM | 25.1 | > 100 µM | 18.9 | 63.3 µM | 9.39 | 31.9 | 8.4 | 36.8 µM | 17.4 | > 100 µM | 53.7 | > 100 |
| O=C1C2C(C(=O)[N]1[Hg][c]1cccs1)C1(Cl)C(Cl)=C(Cl)C2(Cl)C1(Cl)Cl (configuration not stated) | 0.57 | 2.94 µM | 3.04 | 10.1 µM | 1.41 | 2.84 µM | 1.14 | 2.68 µM | 1.8 | 4.72 µM | 1.83 | 4.2 µM | 1.27 | 2.89 | 2.08 | 4.76 µM | 1.72 | 4.18 µM | 0.371 | 5.01 |
| Oc1ccc(CN2CCC(N3CCOCC3)CC2)c2cccnc12 | 35.5 | > 100 µM | 46.9 | > 100 µM | 16.3 | > 100 µM | 26.9 | > 100 µM | 31.3 | > 100 µM | 36.6 | > 100 µM | 21.3 | 50.2 | 24.2 | > 100 µM | 46.2 | > 100 µM | 30.9 | > 100 |
| O=c1ccc(N=Nc2ccc([N+](=O)[O-])cc2)ccc1O | 4.31 | > 100 µM | 3.48 | > 100 µM | 4.18 | > 100 µM | 7.19 | > 100 µM | 19 | > 100 µM | 4.29 | > 100 µM | 8.45 | 43.9 | 4.38 | > 100 µM | 5.15 | > 100 µM | 4.08 | > 100 |
| CCN1/C(=C/C=C/c2n(-c3ccccc3)c3ccc(-c4nc5ccccc5s4)cc3[n+]2CC)N(c2ccccc2)c2ccc(-c3nc4ccccc4s3)cc21 | 0.746 | > 50 µM | 0.527 | > 50 µM | 0.525 | > 50 µM | 0.437 | 4.62 µM | 0.374 | 2.49 µM | 0.387 | > 50 µM | 0.97 | > 50 | 0.854 | 5.75 µM | 0.284 | > 50 µM | 1.8 | > 50 |
